Molecular target: T1, VgEcR and RXR heterodimeric receptor (pVgRXR) with pIND/luc in CHO cells (Drosophila melanogaster, UniProt P34021, E282G/G283S/G286V)
T1 construct: host or cells: CHO cells (ATCC CCL-61), transiently transfected or stably transformed with pVgRXR
T1 sequence (P34021 1-878 E282G/G283S/G286V): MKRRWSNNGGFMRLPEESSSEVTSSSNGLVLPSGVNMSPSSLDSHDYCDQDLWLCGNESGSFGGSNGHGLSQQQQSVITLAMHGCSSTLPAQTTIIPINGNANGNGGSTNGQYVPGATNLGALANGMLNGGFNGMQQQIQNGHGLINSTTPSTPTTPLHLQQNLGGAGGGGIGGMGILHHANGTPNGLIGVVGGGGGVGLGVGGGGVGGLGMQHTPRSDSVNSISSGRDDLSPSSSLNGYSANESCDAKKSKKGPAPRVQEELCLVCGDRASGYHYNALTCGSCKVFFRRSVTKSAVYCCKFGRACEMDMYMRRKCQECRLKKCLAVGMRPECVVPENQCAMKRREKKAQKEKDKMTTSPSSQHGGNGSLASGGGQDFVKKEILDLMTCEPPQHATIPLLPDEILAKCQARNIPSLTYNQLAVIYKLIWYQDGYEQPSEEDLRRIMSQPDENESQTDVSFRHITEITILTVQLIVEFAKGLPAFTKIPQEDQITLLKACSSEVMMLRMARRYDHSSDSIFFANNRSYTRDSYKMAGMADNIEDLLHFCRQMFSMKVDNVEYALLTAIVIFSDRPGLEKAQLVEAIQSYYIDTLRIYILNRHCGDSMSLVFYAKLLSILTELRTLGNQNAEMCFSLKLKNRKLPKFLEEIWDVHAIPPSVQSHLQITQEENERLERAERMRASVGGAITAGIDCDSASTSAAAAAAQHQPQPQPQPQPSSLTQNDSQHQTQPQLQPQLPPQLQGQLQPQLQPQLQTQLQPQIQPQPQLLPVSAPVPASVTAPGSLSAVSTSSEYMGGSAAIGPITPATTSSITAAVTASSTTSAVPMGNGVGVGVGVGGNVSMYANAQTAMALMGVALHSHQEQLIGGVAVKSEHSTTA
T1 sequence (P19793 1-462 partner): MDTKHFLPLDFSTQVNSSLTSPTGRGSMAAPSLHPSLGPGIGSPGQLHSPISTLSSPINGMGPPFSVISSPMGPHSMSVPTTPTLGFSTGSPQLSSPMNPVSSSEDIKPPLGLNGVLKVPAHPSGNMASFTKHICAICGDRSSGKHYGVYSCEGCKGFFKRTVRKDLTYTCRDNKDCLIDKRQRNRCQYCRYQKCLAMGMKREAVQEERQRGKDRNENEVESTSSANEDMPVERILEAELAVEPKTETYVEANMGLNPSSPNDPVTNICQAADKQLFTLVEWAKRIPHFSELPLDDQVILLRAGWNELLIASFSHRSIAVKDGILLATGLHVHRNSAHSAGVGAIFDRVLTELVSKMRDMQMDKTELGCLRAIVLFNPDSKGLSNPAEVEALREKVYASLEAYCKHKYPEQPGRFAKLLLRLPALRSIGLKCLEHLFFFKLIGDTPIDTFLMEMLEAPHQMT
Experiment: Luciferase gene activation in transiently transfected CHO cells
Assay type: cell-based
Details: ligand 10 μM; for Luciferase activity: average of duplicate samples, no ligand = 42; for Induction Ratio (RLU in presence and absence of the ligand): luciferase
Excerpt: pVgRXR (Invitrogen Corp., Carlsbad, Calif.) is an […] plasmid that expresses both VgEcR and RXR to form a modified heterodimeric nuclear receptor (see No, D., et. al., (1996) Proc. Natl. Acad. Sci. USA, 93, 3346-3351). The ecdysone receptor (VgEcR) is derived from the natural Drosophila ecdysone receptor and modified to contain the VP16 transactivation domain (see Cress, W. D., and Triezenberg, S. J. (1991), Science 251, 87-90; Sadowski, I., et. al (1988) Nature 335, 563-564; Triezenberg, S. J et. al., (1988), Genes Dev 2, 718-729; Triezenberg, S. J., et. al., (1988), Genes Dev 2, 730-742). RXR as the mammalian homologue of USP (ultraspiracle), the natural partner to the Drosophila ecdysone receptor (see Yao, T. -P., et. al., (1993), Nature 366, 476-479, Yao, T. -P., et. al., (1992), Cell 71, 63-72). The P-box region of the VgEcR DNA binding domain was modified to recognize the hybrid ecdysone response element that consists of one half-site from the gluccorticoid response element (see Umesono, K., and Evans, R. M. (1989), Cell 57, 1139-1146) and one half-site from the natural ecdysone response element. This hybrid response element reduces any possible interaction with the farsenoid X receptor that may bind the natural ecdysone responsive element (EcRE). The cytomegalovirus enhancer-promoter drives expression of VgEcR, and the Rous sarcoma virus promoter drives expression of RXR. The vector pIND (Invitrogen Corp) is a 5024 bp vector based on pcDNA3.1. It contains five hybrid E/GREs recognized by the modified ecdysone receptor expressed from pVgRXR and a minimal heat shock promoter (see Yao, T. P., et. al., (1993), Nature, 366, 476-479). pIND/lacZ (Invitrogen Crop.) is a 8170 bp plasmid that contains the β-galactosidase gene as a reporter enzyme. Cotransfection of pIND/lacZ and pVgRXR results in the induction of β-galactosidase expression upon addition of ecdysone agonists such as muristerone A. The reporter plasmid pIND/luc was constructed by subcloning the firefly luciferase gene from pGL3 (Promega/E1741) as a Nhe I-BamHI fragment into pIND, also digested with Nhe I and BamHI.
CHO cells (ATCC #CCL-61) were maintained by F-12 Nutrient mixture (Ham's media) (Gibco/BRL, 11765-054) supplemented with 10% fetal bovine serum, (FBS, complete medium; Gibco/BRL, 16000-036). These cells were maintained at 37° C. in 5% CO2 in 95% atmospheric air.
The CHO cells were seeded into 12-well tissue culture plates at a concentration of 0.5×10^5 cells per ml per well. The lipid Pfx-8 (Invitrogen, T930-18) was used to transiently transfect the ecdysone inducible expression system (Invitrogen catalog number K1000-01). The ecdysone inducible expression system consists of pVgRXR, encoding the receptor subunits, and pIND/lacZ or pIND/luc, containing the response element and a reporter gene encoding β-galactosidase or luciferase respectively. Twenty-four hours after seeding cells, the lipid/DNA solution was prepared by 0.5 mg/ml of VgRXR and 0.5 mg/ml pIND/lacZ or pIND/luc DNAs in sterile water. Thirty-six μl of Pfx-8 was diluted in a sterile 17×100 mm polystyrene tube containing 1.5 ml Opti-MEM medium (Gibco/BRL, 31985). Six μl of the plasmid DNA stock was mixed with 1.5 ml of Opti-MEM medium in another polystyrene tube. The DNA and the lipid solutions were combined to make 3 ml of transfection solution (enough for one set of triplicate samples). Cells were washed with phosphate buffered solution (PBS; Gibco/BRL, 14190-144) three times by aspirating medium from the cells. One ml transfection solution was added per well. Cells were incubated for four hours, and the transfection medium replaced with the same volume of complete medium. Cells were incubated for an additional 20 hours.
Stock solutions (10^−2 M) were prepared for muristerone A and the non-steroidal ligands of the present invention in ethanol and acetone respectively, and stored at −20° C. […]

| SMILES | Luciferase activity | Induction Ratio (RLU in presence and absence of the ligand) |
| --- | --- | --- |
| CCc1ccc(C(=O)NN(C(=O)c2cc(C)cc(C)c2)C(C)(C)C)cc1 [CE-1, N-(4-ethylbenzoyl)-N′-(3,5-dimethylbenzoyl)-N′-tert-butyl-hydrazine, reference compound] | 89 RLU | 2 |
| CC(C)(C)N(NC(=O)c1ccccc1)C(=O)c1ccccc1 [CE-2, 1,2-dibenzoyl-1-tert-butyl-hydrazine, reference compound] | 36 RLU | 1 |
| CC(C)CC[C@@H](O)[C@](C)(O)[C@H]1CC[C@@]2(O)C3=CC(=O)[C@]4(O)C[C@@H](O)[C@@H](O)C[C@]4(C)[C@H]3[C@H](O)C[C@]12C [CE-3, muristerone A, reference compound] | 316 RLU | 8 |
| CC(C)CC[C@@H](O)[C@](C)(O)[C@H]1CC[C@@]2(O)C3=CC(=O)[C@@H]4C[C@@H](O)[C@@H](O)C[C@]4(C)[C@H]3CC[C@]12C [CE-4, ponasterone A, reference compound] | 418 RLU | 10 |
| CCc1c(OC)cccc1C(=O)NN(C(=O)c1cccc(OC)c1)C(C)(C)C [Ligand 1] | 275 RLU | 7 |
| Cc1cc(C)cc(C(=O)N(NC(=O)c2ccc3c(c2C)OCCO3)C(C)(C)C)c1 [Ligand 2] | 204 RLU | 5 |
| COc1cccc(C(=O)NN(C(=O)c2cc(C)cc(C)c2)C(C)(C)C)c1C [Ligand 3] | 324 RLU | 8 |
| CCc1c(OC)cccc1C(=O)NN(C(=O)c1cc(F)cc(F)c1)C(C)(C)C [Ligand 4] | 251 RLU | 6 |
| CCc1c(OC)cccc1C(=O)NN(C(=O)c1cc(C)cc(C)c1)C(C)(C)C [Ligand 5] | 313 RLU | 8 |
| CCOc1cccc(C(=O)NN(C(=O)c2cc(C)cc(C)c2)C(C)(C)C)c1CC [Ligand 12] | 305 RLU | 7 |
| CCc1c(OC)cccc1C(=O)NN(C(=O)c1cc(Cl)cc(Cl)c1)C(C)(C)C [Ligand 13] | 226 RLU | 5 |

Reference: patent publication US20010044151A1, “Ligands for modulating the expression of exogenous genes via an ecdysone receptor complex” (priority 1998, published 2001)
